Assay: LogP by HPLC on reversed phase columns (EEC directive 79/831 Annex V.A8), method [a]
Format: physicochemical
Conditions: LC-UV, acidic range, 0.1% formic acid in water and acetonitrile as eluent (linear gradient 10% to 95% acetonitrile)

Structure (SMILES) | LogP[a]
Cc1cccc(OCC(C)Oc2cccc(NC(=O)c3cccnc3C(F)F)c2C)c1 (stereo not shown) [Example 33] | 3.68
Cc1c(NC(=O)c2cccnc2C(F)F)cccc1OC(C)COc1cccc(Cl)c1 (stereo not shown) [Example 34] | 3.76
Cc1c(NC(=O)c2cccnc2C(F)F)cccc1OC(C)COc1ccccc1Cl (stereo not shown) [Example 35] | 3.59
Cc1c(NC(=O)c2cccnc2C(F)F)cccc1OCc1ccc(F)cc1 [Example 36] | 3.06
Cc1c(NC(=O)c2cccnc2C(F)F)cccc1OCc1ccccc1Cl [Example 37] | 3.41
Cc1c(NC(=O)c2cccnc2C(F)F)cccc1OCc1cccc(C(F)(F)F)c1 [Example 38] | 3.52
Cc1c(NC(=O)c2cccnc2C(F)F)cccc1OCc1ccccc1C(F)(F)F [Example 39] | 3.55
Cc1c(NC(=O)c2cccnc2C(F)F)cccc1OCc1cccc(F)c1 [Example 40] | 3.09
Cc1c(NC(=O)c2cccnc2C(F)F)cccc1OCc1ccccc1F [Example 41] | 3.06
Cc1c(NC(=O)c2cccnc2C(F)F)cccc1OCc1cc(Cl)cc(Cl)c1 [Example 42] | 3.96
Cc1c(NC(=O)c2cccnc2C(F)F)cccc1OCc1cc(Cl)ccc1Cl [Example 43] | 3.85
Cc1c(NC(=O)c2cccnc2C(F)F)cccc1OCc1cccc(Cl)c1Cl [Example 45] | 3.83
Cc1c(NC(=O)c2cccnc2C(F)F)cccc1OCc1ccc(Cl)cc1Cl [Example 46] | 3.99
Cc1c(NC(=O)c2cccnc2C(F)F)cccc1OC(C)c1ccc(Cl)cc1 (stereo not shown) [Example 47] | 3.65
Cc1c(NC(=O)c2cccnc2C(F)F)cccc1OC(C)c1ccc(Cl)c(Cl)c1 (stereo not shown) [Example 48] | 4.01
Cc1c(NC(=O)c2cccnc2C(F)F)cccc1OC(C)c1ccc(F)cc1 (stereo not shown) [Example 49] | 3.29
Cc1c(NC(=O)c2cccnc2C(F)F)cccc1OC(C)c1ccccc1Cl (stereo not shown) [Example 50] | 3.79
Cc1c(NC(=O)c2cccnc2C(F)F)cccc1OC(C)c1cccc(Cl)c1 (stereo not shown) [Example 51] | 3.63
Cc1c(NC(=O)c2cccnc2C(F)F)cccc1OC(C)c1c(F)cccc1F (stereo not shown) [Example 52] | 3.33
Cc1c(NC(=O)c2cccnc2C(F)F)cccc1OC(C)c1cccc(C(F)(F)F)c1 (stereo not shown) [Example 53] | 3.70
Cc1c(NC(=O)c2cccnc2C(F)F)cccc1OCc1cccc(Br)c1 [Example 54] | 3.52
Cc1c(NC(=O)c2cccnc2C(F)F)cccc1OC(C)c1ccccc1C(F)(F)F (stereo not shown) [Example 55] | 3.87
Cc1c(NC(=O)c2cccnc2C(F)F)cccc1OC(C)c1cc(Cl)ccc1Cl (stereo not shown) [Example 56] | 4.15
Cc1c(NC(=O)c2cccnc2C(F)F)cccc1OC(C)c1ccccc1F (stereo not shown) [Example 57] | 3.37
Cc1c(NC(=O)c2cccnc2C(F)F)cccc1OCCc1ccc(C(F)(F)F)cc1 [Example 58] | 3.72

Structure (SMILES) | LogP[a]
Cc1c(NC(=O)c2cccnc2C(F)F)cccc1OCCc1ccccc1C(F)(F)F [Example 59] | 3.74
Cc1c(NC(=O)c2cccnc2C(F)F)cccc1OCCc1cccc(C(F)(F)F)c1 [Example 60] | 3.68
Cc1c(NC(=O)c2cccnc2C(F)F)cccc1OCCc1cccc(F)c1 [Example 61] | 3.29
Cc1c(NC(=O)c2cccnc2C(F)F)cccc1OCCc1ccccc1F [Example 62] | 3.31
Cc1c(NC(=O)c2cccnc2C(F)F)cccc1OCCc1ccc(F)cc1 [Example 63] | 3.29
Cc1c(NC(=O)c2cccnc2C(F)F)cccc1OCCc1ccccc1Cl [Example 64] | 3.65
Cc1c(NC(=O)c2cccnc2C(F)F)cccc1OCCc1cccc(Cl)c1 [Example 65] | 3.61
Cc1c(NC(=O)c2cccnc2C(F)F)cccc1OCCc1ccc(Cl)cc1 [Example 66] | 3.68
Cc1c(NC(=O)c2cccnc2C(F)F)cccc1OC(C)Cc1ccc(Cl)cc1 (stereo not shown) [Example 67] | 3.90
Cc1c(NC(=O)c2cccnc2C(F)F)cccc1OC(C)Cc1cccc(Cl)c1 (stereo not shown) [Example 68] | 3.85
Cc1c(NC(=O)c2cccnc2C(F)F)cccc1OC(C)Cc1ccccc1Cl (stereo not shown) [Example 69] | 3.90
Cc1c(NC(=O)c2cccnc2C(F)F)cccc1OC(C)CSc1ccccc1 (stereo not shown) [Example 70] | 3.65
Cc1c(NC(=O)c2cccnc2C(F)F)cccc1OCc1cccs1 [Example 71] | 2.82
Cc1c(NC(=O)c2cccnc2C(F)F)cccc1OC(C)Cc1cccs1 (stereo not shown) [Example 72] | 3.37
Cc1c(NC(=O)c2cccnc2C(F)F)cccc1OCc1ccc(C(F)(F)F)cc1 [Example 73] | 3.57
Cc1c(CCC(C)(C)C)cccc1NC(=O)c1cccnc1C(F)F [Example 74] | 3.92
Cc1c(NC(=O)c2cccnc2C(F)F)cccc1OC1CCCC1 [Example 75] | 3.21
Cc1c(NC(=O)c2cccnc2C(F)F)cccc1OCC=C(Cl)Cl [Example 76] | 3.21
Cc1c(NC(=O)c2cccnc2C(F)F)cccc1OCC1CCCCC1 [Example 77] | 4.14
Cc1c(NC(=O)c2cccnc2C(F)F)cccc1OCCC(C)(C)C [Example 78] | 3.85
Cc1c(NC(=O)c2cccnc2C(F)F)cccc1C1CCCCO1 (stereo not shown) [Example 80] | 2.53
Cc1c(NC(=O)c2cccnc2C(F)F)cccc1C1CC2CCC1C2 (stereo not shown) [Example 81] | 3.80
Cc1c(NC(=O)c2cccnc2C(F)F)cccc1C1CCCO1 (stereo not shown) [Example 82] | 2.02
CCCC(CC)Oc1cccc(NC(=O)c2cccnc2C(F)F)c1C (stereo not shown) [Example 83] | 3.94
Cc1c(NC(=O)c2cccnc2C(F)F)cccc1OC(C)CC(C)(C)C (stereo not shown) [Example 84] | 4.21

Structure (SMILES) | LogP[a]
Cc1c(NC(=O)c2cccnc2C(F)F)cccc1OC(C)C1CCCC1 (stereo not shown) [Example 85] | 4.06
CCCCC(C)Oc1cccc(NC(=O)c2cccnc2C(F)F)c1C (stereo not shown) [Example 86] | 3.94
Cc1c(NC(=O)c2cccnc2C(F)F)cccc1OC(C)CCC(C)C (stereo not shown) [Example 87] | 4.26
Cc1c(NC(=O)c2cccnc2C(F)F)cccc1OC(C)Cc1ccccc1 (stereo not shown) [Example 88] | 3.62
Cc1c(NC(=O)c2cccnc2C(F)F)cccc1OC(C)c1ccccc1 (stereo not shown) [Example 89] | 3.33
Cc1c(COC(C)C)cccc1NC(=O)c1cccnc1C(F)F [Example 90] | 2.43
O=C(Nc1cccc(OC2CCCC2)c1C(F)(F)F)c1cccnc1C(F)F [Example 91] | 3.33
CCC(CC)Oc1cccc(NC(=O)c2cccnc2C(F)F)c1C(F)(F)F [Example 92] | 3.55
CCCC(CC)Oc1cccc(NC(=O)c2cccnc2C(F)F)c1C(F)(F)F (stereo not shown) [Example 93] | 3.92
CCC(C)Oc1cccc(NC(=O)c2cccnc2C(F)F)c1C(F)(F)F (stereo not shown) [Example 94] | 3.17
CCC(C)Oc1cccc(NC(=O)c2cc(C)cnc2C(F)F)c1C(F)(F)F (stereo not shown) [Example 95] | 3.44
CCC(C)Oc1cccc(NC(=O)c2ccc(Cl)nc2C(F)F)c1C(F)(F)F (stereo not shown) [Example 96] | 3.83
CC(C)Oc1cccc(NC(=O)c2ccc(Cl)nc2C(F)F)c1C(F)(F)F [Example 97] | 3.46
Cc1cnc(C(F)F)c(C(=O)Nc2cccc(OC(C)C)c2C(F)(F)F)c1 [Example 98] | 3.04
CC(C)Oc1cccc(NC(=O)c2cccnc2C(F)F)c1C(F)(F)F [Example 99] | 2.80
O=C(Nc1cccc(OCc2ccccc2)c1C(F)(F)F)c1cccnc1C(F)F [Example 100] | 3.13
CC(Oc1cccc(NC(=O)c2cccnc2C(F)F)c1C(F)(F)F)c1ccccc1 (stereo not shown) [Example 101] | 3.42
Cc1cnc(C(F)F)c(C(=O)Nc2cccc(OC(C)c3ccccc3)c2C(F)(F)F)c1 (stereo not shown) [Example 102] | 3.69
CC(Oc1cccc(NC(=O)c2ccc(Cl)nc2C(F)F)c1C(F)(F)F)c1ccccc1 (stereo not shown) [Example 103] | 4.03
Cc1c(NC(=O)c2cccnc2C(F)F)cccc1N1CCCC1 [Example 104] | 0.79
Cc1c(NC(=O)c2cccnc2C(F)F)cccc1S(=O)(=O)C1CCCC1 [Example 105] | 2.21
CCC(CC)Nc1cccc(NC(=O)c2cccnc2C(F)F)c1C [Example 106] | 2.86
Cc1c(NC(=O)c2cccnc2C(F)F)cccc1NC1CCCC1 [Example 107] | 2.17
Cc1c(NC(=O)c2cccnc2C(F)F)cccc1N(C)C [Example 108] | 0.45
Cc1c(NC(=O)c2cccnc2C(F)F)cccc1N(C)C1CCCC1 [Example 109] | 1.39

Same assay, conditions: reversed phase HPLC column; LC-UV, acidic range, 0.1% formic acid in water and acetonitrile as eluent (linear gradient 10% to 95% acetonitrile)

Structure (SMILES) | chromatographic logP
CCCC(C)Oc1cccc(NC(=O)c2cccnc2C(F)F)c1C (stereo not shown) [Example 79, 2-(difluoromethyl)-N-[2-methyl-3-(pentan-2-yloxy)phenyl]nicotinamide] | 3.48
